Marks after values point to notes of the source that are not given here.

Experimental findings from patent US20230091336A1, “CANNABINOID COMPOSITIONS” (priority 2020, published 2023) are described below.

In experiment [1] the test system is cisplatin-induced nephritis mice. Put plainly: Cisplatin-induced kidney damage mouse model. The conditions noted are these: for body-weight loss in cisplatin-induced nephritis mice / kidney weight left / kidney weight right / urine / water intake / body weight: 10 mg/kg i.p.; for body-weight loss in cisplatin-induced nephritis mice: FIG. 25; for creatinine and BUN levels, treatment group vs vehicle group: cisplatin model, first statement of b267; for kidney weight left / kidney weight right / urine / water intake / body weight: cisplatin-induced mice at day 3; for body weight: cisplatin 16 mg/kg, n = 4-5; for kidney weight normalized to body weight / magnesium regulation (serum and urine magnesium) vs cisplatin vehicle group: day 3; for kidney weight normalized to body weight: FIG. 26; for magnesium regulation (serum and urine magnesium) vs cisplatin vehicle group: FIGS. 27A-27B; for kidney function as determined by blood urea nitrogen (BUN): day 3 serum, FIG. 28; for amount of PARP-1 protein in kidney (Western blot): vs cis(+) vehicle, FIG. 30B. The class given is in vivo. The protocol: CBGA and/or CBD was injected intraperitoneally (i.p) 2 hours into C57BL/6 male mice (8 wks weighing 23-30 g) before cisplatin injection according to dosage schemes outlined below, and cisplatin-induced kidney damage was compared to normal kidneys. Sham treatment without cisplatin cis(−) was used as a negative control and cisplatin injection cis(+) without cannabinoid extract treatment was used as a positive vehicle control. Mice in group 1 (“vehicle”) received treatment with cisplatin (16 mg/kg body weight, lmg/mL in 0.90% NaCl, i.p) following intraperitoneal injection of vehicle control solution (5 mL/kg body weight) comprising 5% ethanol and 5% Tween80 in 0.9% NaCl. Mice in group 2 (“CBGA”) received treatment with cisplatin (16 mg/kg body weight, 1 mg/mL in 0.9% NaCl, i.p) following injection of CBGA (10 mg/kg body weight) 2 mg/mL in 5% ethanol, 5% Tween80 and 0.9% NaCl Mice in group 3 (“CBD”) received treatment with cisplatin (16 mg/kg body weight, 1 mg/mL in 0.9% NaCl, i.p) following intraperitoneal injection of CBD (10 mg/kg body weight) 2 mg/mL in 5% ethanol, 5% Tween80 and 0.9% NaCl. Mice in group 4 (“CBGA+CBD”) received treatment with cisplatin (16 mg/kg body weight, 1 mg/mL in 0.9% NaCl, i.p) following intraperitoneal injection of CBGA (10 mg/kg body weight)+CBD (10 mg/kg body weight) 2 mg/mL each in 5% ethanol, 5% Tween80 and 0.9% NaCl. Mice in group 5 (“cis(−)”) received sham injections comprising 0.9% NaCl (16 mL/kg body weight) following intraperitoneal injection of vehicle control solution (5 mL/kg body weight) 5% ethanol, 5% Tween80 and 0.9% NaCl.
Mice were euthanized at Day 3 following cisplatin injection, and kidneys were harvested and stored for processing and analysis.
Blood and urine were collected and analyzed to check kidney function. Blood was collected following euthanization, and urine was collected for 24 hrs before euthanasia in metabolic cages. […] Creatinine levels and BUN or urea value were measured from blood serum and urine samples to evaluate the kidney function. […] FIG. 29A-29B show measured creatinine levels in cisplatin-induced nephrotic mice at day 3. Urine was collected using a metabolic cage for 24 hours before sacrifice. Creatinine was assessed by an assay kit (n=4-5). Creatinine concentration in serum (FIG. 29A) and creatinine in urine (FIG. 29B) were maintained in cannabinoid-treated mice. *p<0.05 vs. cis(+) vehicle treatment group.
PARP-1 in cisplatin- and cannabinoid-treated kidney samples was evaluated by Western blot quantification. PARP activity increases to repair DNA damage, while it induces apoptosis when the cells have severe damage and can not be repaired in cisplatin-induced inflammatory kidneys. […] (FIG. 30A) PARP-1 in kidney tissue was evaluated by quantification of Western blot results, wherein α-tubulin was used as an internal control to normalize PARP-1 band quantification. […] PARP-1 was reduced in mice treated with cisplatin and cannabinoids, relative to mice treated with cisplatin and “vehicle” solution (FIG. 30B). Densitometric analysis was performed from the result of western blotting and presented as a bar graph (n=4-5). […] The rightmost bar represents the sham treatment (“cis(−)”), wherein mice received vehicle injections instead of both cisplatin and cannabinoid extracts as a negative control. **p<0.01 vs. cis(+) vehicle treatment group. CBGA reduced the amount of PARP-1 protein detected in cisplatin-induced nephritis mice. […]
For orientation: In western blotting, separated proteins are transferred to a membrane and probed.

Experiment [2] deals with SOCE in Jurkat T cells. Briefly: SOCE Fura-2 bioassay in Jurkat cells. The class given is cell-based, human. The conditions noted are these: for effect on SOCE Ca^2+ signals, pure compounds: 10 μM, 1 μM thapsigargin, FIG. 7A, 7C; for IC50: Homo sapiens, read-out: IC50 SOCE, purified cannabinoids, Jurkat, Table 5.
Experiment [3] concerns SOCE in THP-1 human monocytes. Put plainly: SOCE Fura-2 bioassay in THP-1 cells. The conditions noted are these: for IC50: Homo sapiens, THP-1, read-out: IC50 SOCE, purified cannabinoids.
Experiment [4] concerns SOCE in Luva human mast cells. Briefly: SOCE Fura-2 bioassay in Luva cells. The conditions noted are these: Homo sapiens, Mast cell, read-out: IC50 SOCE, purified cannabinoids, Luva; Table 5.
Experimental: (§1) Briefly, SOCE inhibition experiments were performed as described in Example 8, using each of the hemp extracts listed below and in Tables 6A and 6B at six concentrations each in each of the five cell types listed above to obtain dose response curves, as shown in FIGS. 11A-11SS. […] All data are averages of three independent runs±SEM. […] Hemp extracts used in FIGS. 11A-11SS are: Sour Space Candy (SSC), Hawaiian Haze (HH), Special Sauce (SS), Suver Haze (SH), White CBG (WCBG), Elektra (ELEK), Cherry Wine (CW), Lifter (LIF), Grape Soda (GS).
Experiment [5] relates to SOCE in RBL-2H3 rat mast cells. Briefly: SOCE Fura-2 bioassay in RBL-2H3 cells. The conditions noted are these: Rattus norvegicus, RBL-2H3, read-out: IC50 SOCE, purified cannabinoids, RBL-2H3; Table 5.
Experimental: as §1
Experiment [6] relates to SOCE in U937 human monocytes. Briefly: SOCE Fura-2 bioassay in U937 cells. Particulars: Homo sapiens, U-937, read-out: IC50 SOCE, purified cannabinoids, U937; Table 5.
Experimental: as §1

In general, IC50 refers to the concentration that gives 50% inhibition. As to `CCCCCc1cc(O)c(C/C=C(\C)CCC=C(C)C)c(O)c1C(=O)O` [CBGA, (E)-3-(3,7-dimethylocta-2,6-dien-1-yl)-2,4-dihydroxy-6-pentylbenzoic acid], in experiment [1], the “body-weight loss in cisplatin-induced nephritis mice” value is listed as “recovered”; the “creatinine and BUN levels, treatment group vs vehicle group” value is “did not change”; the kidney weight left is given as 128 ± 8.2** mg; the kidney weight right amounted to 139 ± 10.8 mg. In addition, in experiment [1], the urine is recorded as 1.162 ± 0.128 mL, the water intake is recorded as 2.50 ± 0.50* mL, the body weight came out at 20.85 ± 1.29 g and the “kidney weight normalized to body weight” value is “No significant difference”. In addition, in experiment [1], the “magnesium regulation (serum and urine magnesium) vs cisplatin vehicle group” value was “maintained magnesium regulation”; the “kidney function as determined by blood urea nitrogen (BUN)” value is listed as “maintained kidney function”; the “amount of PARP-1 protein in kidney (Western blot)” value is listed as “reduced”. Moreover, the “mRNA expression of inflammatory markers (TNF-α, IL-6, Cxcl10, ICAM-1, MCP-1, CRP, ET-1) in kidney” value in experiment [1] (qRT-PCR, cis(+)-induced increase, FIGS. 31A-31G) is given as “significantly reduced”. Besides, in experiment [2], the “effect on SOCE Ca^2+ signals, pure compounds” value is on record as “fully block the Ca^2+ signals” and the IC50 came to 530 nM. Further, the IC50 in experiment [3] was 2210 nM. Moreover, the half-maximal inhibitory concentration (IC50) in experiment [4] stood at 270 nM. Further, the IC50 in experiment [5] came out at 5720 nM. The IC50 in experiment [6] turned out to be 2230 nM.
For `C=C(C)[C@@H]1CCC(C)=C[C@H]1c1c(O)cc(CCCCC)cc1O` [CBD, (1′R,2′R)-5′-methyl-4-penlyl-2′-(prop-1-en-2-yl)-1′,2′,3′,4′-tetrahydro-[1,1′-biphenyl]-2,6-diol], in experiment [1], the “body-weight loss in cisplatin-induced nephritis mice” value is reported as “didn't affect”; the “creatinine and BUN levels, treatment group vs vehicle group” value is listed as “did not change”; the kidney weight left is reported as 121 ± 5.0** mg; the kidney weight right is on record as 132 ± 6.8 mg. For the same molecule, in experiment [1], the urine is listed as 1.042 ± 0.131 mL, the water intake is 1.79 ± 0.37** mL, the body weight is recorded as 20.23 ± 0.82* g and the “kidney weight normalized to body weight” value is “No significant difference”. Also, in experiment [1], the “magnesium regulation (serum and urine magnesium) vs cisplatin vehicle group” value is reported as “protected magnesium regulation”; the “kidney function as determined by blood urea nitrogen (BUN)” value is on record as “maintained kidney function”; the “amount of PARP-1 protein in kidney (Western blot)” value is on record as “reduced”. Moreover, in experiment [2], the “effect on SOCE Ca^2+ signals, pure compounds” value is “low to no effects” and the IC50 was 7420 nM. Further, the “combinatory effect on SOCE inhibition when paired with CBGA (isobolographic analysis)” value in experiment [2] (pairs expected to inhibit 50%, FIGS. 10A-10T) is given as “Simple additive”. In experiment [3], the IC50 was over 50000 nM. Further, in experiment [3] (THP-1, 10 μM cannabinoid + 2.2 μM CBGA, FIG. 10Z), the “combinatory effect when paired with 2.2 μM CBGA” value is given as “sub-additive”. In addition, the IC50 in experiment [4] stood at 2530 nM. In experiment [5], the IC50 is over 50000 nM. In experiment [6], the IC50 is over 50000 nM.
